{"source": "PubChem BioAssay AID330", "about": "(DTP/NCI, 2004)", "system": "P388 leukemia ip, CD2F1 mice, survival T/C", "experiment": "NCI In Vivo Anticancer Drug Screen. Data for tumor model P388 Leukemia (intraperitoneal) in CD2F1 (CDF1) mice", "settings": "endpoint: median survival time, higher = longer survival", "procedure,_shortened": "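Mice carrying the transplanted tumor received test compound or vehicle. Survival was recorded in each group, and the value is the treated-group measurement divided by that of the vehicle-treated control group.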", "key": {"[1]": {"settings": "dose: 100.0 mg/kg/injection, schedule: Q01DX009 (ip), vehicle: saline with Tween-80"}, "[2]": {"settings": "dose: 200.0 mg/kg/injection, schedule: Q01DX009 (ip), vehicle: saline with Tween-80"}, "[3]": {"settings": "dose: 400.0 mg/kg/injection, schedule: Q01DX009 (ip), vehicle: saline with Tween-80"}, "[4]": {"settings": "dose: 60.0 mg/kg/injection, schedule: Q01DX005 (ip), vehicle: saline with Tween-80"}, "[5]": {"settings": "dose: 120.0 mg/kg/injection, schedule: Q01DX005 (ip), vehicle: saline with Tween-80"}, "[6]": {"settings": "dose: 240.0 mg/kg/injection, schedule: Q01DX005 (ip), vehicle: saline with Tween-80"}, "[7]": {"settings": "dose: 12.5 mg/kg/injection, schedule: Q01DX005 (ip), vehicle: saline with Tween-80"}, "[8]": {"settings": "dose: 25.0 mg/kg/injection, schedule: Q01DX005 (ip), vehicle: saline with Tween-80"}, "[9]": {"settings": "dose: 50.0 mg/kg/injection, schedule: Q01DX005 (ip), vehicle: saline with Tween-80"}}, "note": "Where “and” joins values, the source holds several entries; their conditions need not be identical. Identical values can stand only once. Toxic doses and inconclusive results are not listed."}
{"smiles": "O=C(Nc1ccc(C2=NCCN2)cc1)c1ccc(C(=O)Nc2ccc(C3=NCCN3)cc2)c(F)c1", "values": [{"measurement": "T/C", "setting": "dose: 12.5 mg/kg/injection, schedule: Q04DX003 (ip), vehicle: saline with Tween-80", "result": "109 % of control"}, {"measurement": "T/C", "setting": "dose: 25.0 mg/kg/injection, schedule: Q04DX003 (ip), vehicle: saline with Tween-80", "result": "122 % of control"}, {"measurement": "T/C", "setting": "[1]", "result": "181 % of control"}, {"measurement": "T/C", "setting": "[2]", "result": "250 % of control"}, {"measurement": "T/C", "setting": "dose: 264.0 mg/kg/injection, schedule: Q04DX003 (ip), vehicle: saline with Tween-80", "result": "200 % of control"}, {"measurement": "T/C", "setting": "[3]", "result": "272 % of control"}, {"measurement": "T/C", "setting": "dose: 400.0 mg/kg/injection, schedule: Q04DX003 (ip), vehicle: saline with Tween-80", "result": "245 % of control"}, {"measurement": "T/C", "setting": "dose: 600.0 mg/kg/injection, schedule: Q04DX003 (ip), vehicle: saline with Tween-80", "result": "259 % of control"}]}
{"smiles": "CCOP(=S)(N/N=C/c1ccc(Cl)s1)OCC", "values": [{"measurement": "T/C", "setting": "dose: 50.0 mg/kg/injection, schedule: Q01DX005 (ip), vehicle: Klucel (hydroxypropylcellulose) (HPC)", "result": "115 % of control"}, {"measurement": "T/C", "setting": "dose: 100.0 mg/kg/injection, schedule: Q01DX005 (ip), vehicle: Klucel (hydroxypropylcellulose) (HPC)", "result": "110 % of control"}, {"measurement": "T/C", "setting": "dose: 200.0 mg/kg/injection, schedule: Q01DX005 (ip), vehicle: Klucel (hydroxypropylcellulose) (HPC)", "result": "114 % of control"}]}
{"smiles": "C/C(=N\\NC(=O)c1ccccc1)c1cccc(/C(C)=N/NC(=O)c2ccccc2)n1.CC(=O)[O-].CC(=O)[O-].[Zn+2]", "values": [{"measurement": "T/C", "setting": "dose: 100.0 mg/kg/injection, schedule: Q01DX001 (ip), vehicle: saline with Tween-80", "result": "95 % of control"}, {"measurement": "T/C", "setting": "dose: 200.0 mg/kg/injection, schedule: Q01DX001 (ip), vehicle: saline with Tween-80", "result": "104 % of control"}, {"measurement": "T/C", "setting": "dose: 400.0 mg/kg/injection, schedule: Q01DX001 (ip), vehicle: saline with Tween-80", "result": "100 % of control"}]}
{"smiles": "C/C(=C\\COc1ccc2ccc(=O)oc2c1)C1=CC(=O)C(C)(C)O1", "values": [{"measurement": "T/C", "setting": "dose: 266.0 mg/kg/injection, schedule: Q01DX009 (ip), vehicle: saline with Tween-80", "result": "115 % of control"}, {"measurement": "T/C", "setting": "[3]", "result": "114 % of control"}, {"measurement": "T/C", "setting": "dose: 600.0 mg/kg/injection, schedule: Q01DX009 (ip), vehicle: saline with Tween-80", "result": "123 % of control"}]}
{"smiles": "Cc1ccc2nc(CC(=O)c3ccc4ccccc4c3)c(=O)[nH]c2c1", "values": [{"measurement": "T/C", "setting": "[4]", "result": "99 % of control"}, {"measurement": "T/C", "setting": "[5]", "result": "92 % of control"}, {"measurement": "T/C", "setting": "[6]", "result": "94 % of control"}]}
{"smiles": "CC(C)c1ccc(/C=C(/NC(=O)c2ccccc2)c2nc3ccccc3s2)cc1", "values": [{"measurement": "T/C", "setting": "[4]", "result": "104 % of control"}, {"measurement": "T/C", "setting": "[5]", "result": "111 % of control"}, {"measurement": "T/C", "setting": "[6]", "result": "118 % of control"}]}
{"smiles": "Cn1c(N)c(C(=O)c2cccs2)c(=O)n(C)c1=O", "values": [{"measurement": "T/C", "setting": "dose: 50.0 mg/kg/injection, schedule: Q01DX009 (ip), vehicle: Klucel (hydroxypropylcellulose) (HPC)", "result": "96 % of control"}, {"measurement": "T/C", "setting": "dose: 100.0 mg/kg/injection, schedule: Q01DX009 (ip), vehicle: Klucel (hydroxypropylcellulose) (HPC)", "result": "88 % of control"}, {"measurement": "T/C", "setting": "dose: 200.0 mg/kg/injection, schedule: Q01DX009 (ip), vehicle: Klucel (hydroxypropylcellulose) (HPC)", "result": "96 % of control"}]}
{"smiles": "CC(C)(C)/C=C/N1CCN=N1", "values": [{"measurement": "T/C", "setting": "[7]", "result": "100 % of control"}, {"measurement": "T/C", "setting": "[8]", "result": "104 % of control"}, {"measurement": "T/C", "setting": "[9]", "result": "102 % of control and 109 % of control"}]}
{"smiles": "O=C(Nc1cccc2ccccc12)OC1CC2CCC1C2Cl", "note": "(configuration not stated)", "values": [{"measurement": "T/C", "setting": "dose: 25.0 mg/kg/injection, schedule: Q01DX009 (ip), vehicle: other", "result": "93 % of control"}, {"measurement": "T/C", "setting": "dose: 50.0 mg/kg/injection, schedule: Q01DX009 (ip), vehicle: other", "result": "87 % of control"}, {"measurement": "T/C", "setting": "dose: 100.0 mg/kg/injection, schedule: Q01DX009 (ip), vehicle: other", "result": "87 % of control"}, {"measurement": "T/C", "setting": "dose: 200.0 mg/kg/injection, schedule: Q01DX009 (ip), vehicle: other", "result": "88 % of control"}, {"measurement": "T/C", "setting": "dose: 400.0 mg/kg/injection, schedule: Q01DX009 (ip), vehicle: other", "result": "91 % of control"}]}
{"smiles": "CCC/C(=N\\NC(=S)N(C)C)c1ccccn1", "values": [{"measurement": "T/C", "setting": "[7]", "result": "103 % of control"}, {"measurement": "T/C", "setting": "[8]", "result": "107 % of control"}, {"measurement": "T/C", "setting": "[9]", "result": "115 % of control and 117 % of control"}]}
{"smiles": "CCOC(=O)N1C(=O)C2C3CCC(C2C1=O)C1C2C(=O)N(C(=O)OCC)C(=O)C2C31", "note": "(configuration not stated)", "values": [{"measurement": "T/C", "setting": "dose: 12.5 mg/kg/injection, schedule: Q01DX009 (ip), vehicle: saline with Tween-80", "result": "103 % of control"}, {"measurement": "T/C", "setting": "dose: 25.0 mg/kg/injection, schedule: Q01DX009 (ip), vehicle: saline with Tween-80", "result": "104 % of control and 111 % of control"}, {"measurement": "T/C", "setting": "dose: 50.0 mg/kg/injection, schedule: Q01DX009 (ip), vehicle: saline with Tween-80", "result": "115 % of control"}, {"measurement": "T/C", "setting": "[1]", "result": "157 % of control"}, {"measurement": "T/C", "setting": "[2]", "result": "222 % of control"}]}
